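1) Cells in 96-well plates. 2) Compound, 48 h, 5 concentrations. 3) Linear interpolation between surrounding doses. 4) Unreached endpoint = highest concentration. GI50: concentration for 50% inhibition of growth.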 Active and inactive are the calls of the source. No stated cut-off is given here; in the data, active = GI50 up to about 1.1 µM and inactive = higher.
Columns and labels:
Assay in all cases: inhibition of tumour cell growth, NCI panel, 48 h
[1] = test system: NCI-H23
[2] = test system: COLO 205
[3] = test system: MDA-MB-231
[4] = test system: HCT-15
[5] = test system: BT-549
[6] = test system: A549
[7] = test system: NCI/ADR-RES
[8] = test system: SF-268
[9] = test system: UACC-257
[10] = test system: TK-10
[11] = test system: HCT-116
[12] = test system: NCI-H226
[13] = test system: SK-MEL-2
[14] = test system: CAKI-1
[15] = test system: MDA-N
[16] = test system: HL-60
[17] = test system: MDA-MB-435
[18] = test system: NCI-H522
[19] = test system: K562
[20] = test system: MCF7

| Compound | GI50 [1] | GI50 [2] | GI50 [3] | GI50 [4] | GI50 [5] | GI50 [6] | GI50 [7] | GI50 [8] | GI50 [9] | GI50 [10] | GI50 [11] | GI50 [12] | GI50 [13] | GI50 [14] | GI50 [15] | GI50 [16] | GI50 [17] | GI50 [18] | GI50 [19] | GI50 [20] |
| --- | --- | --- | --- | --- | --- | --- | --- | --- | --- | --- | --- | --- | --- | --- | --- | --- | --- | --- | --- | --- |
| Cc1ccc([N+](=O)[O-])cc1S(=O)(=O)Nc1ccc(C2=NN(C(=O)c3ccccc3)C(c3ccccc3O)C2)cc1 (stereo not given) | 17.1 µM (inactive) | 14.3 µM (inactive) | 15.7 µM (inactive) | 13.2 µM | 14 µM (inactive) | 19.1 µM (inactive) | 27 µM (inactive) | 12.8 µM (inactive) | 17.3 µM (inactive) | 13.7 µM (inactive) | 11.4 µM (inactive) | 14.9 µM (inactive) | 16.7 µM (inactive) | 17.6 µM (inactive) | 21.5 µM (inactive) | 18.6 µM (inactive) | 31.2 µM (inactive) | 12.6 µM (inactive) | 15.3 µM (inactive) | 13.4 µM (inactive) |
| COC(=O)[C@@H]1COC(=O)N1 | > 100 µM (inactive) | > 100 µM (inactive) | > 100 µM (inactive) | > 100 µM | > 100 µM (inactive) | > 100 µM (inactive) | > 100 µM (inactive) | > 100 µM (inactive) | > 100 µM (inactive) | > 100 µM (inactive) | > 100 µM (inactive) | > 100 µM (inactive) | > 100 µM (inactive) | > 100 µM (inactive) | > 100 µM (inactive) | > 100 µM (inactive) | > 100 µM (inactive) | > 100 µM (inactive) | > 100 µM (inactive) | > 100 µM (inactive) |
| CC1=CC(=O)c2ccc3c4ccccc4n(C)c3c2C1=O | 14 µM (inactive) | > 85.9 µM (inactive) | 70.6 µM (inactive) | 25.5 µM | 41.8 µM (inactive) | 48.2 µM (inactive) | > 100 µM (inactive) | > 70 µM (inactive) | 46.3 µM (inactive) | > 100 µM (inactive) | > 88.5 µM (inactive) | > 94.4 µM (inactive) | 16.2 µM (inactive) | 36.2 µM (inactive) | 16.6 µM (inactive) | 22.8 µM (inactive) | 17.1 µM (inactive) | 28.4 µM (inactive) | 16.1 µM (inactive) | 12 µM (inactive) |
| Cc1cc2occ(S(=O)(=O)NC(=O)Nc3ccc(Cl)cc3)c(=O)c2c(=O)o1 | > 100 µM (inactive) | > 100 µM (inactive) | > 100 µM (inactive) | 9.18 µM | > 100 µM (inactive) | > 100 µM (inactive) | > 100 µM (inactive) | > 100 µM (inactive) | > 100 µM (inactive) | > 100 µM (inactive) | > 100 µM (inactive) | > 100 µM (inactive) | > 100 µM (inactive) | > 100 µM (inactive) | > 100 µM (inactive) | > 100 µM (inactive) | > 100 µM (inactive) | > 100 µM (inactive) | > 100 µM (inactive) | > 100 µM (inactive) |
| C[C@]12CCC(=O)C=C1CC[C@@H]1[C@@H]2CC[C@]2(C)C(=O)/C(=C/c3ccc([N+](=O)[O-])cc3)C[C@@H]12 | 27.8 µM (inactive) | 7.41 µM (inactive) | 75.2 µM (inactive) | 10.5 µM | 6.3 µM (inactive) | 8.36 µM (inactive) | 5.85 µM (inactive) | 83.6 µM (inactive) | 6.59 µM (inactive) | > 100 µM (inactive) | 9.57 µM (inactive) | > 100 µM (inactive) | 62.5 µM (inactive) | 8.95 µM (inactive) | 6.31 µM (inactive) | 3.51 µM (inactive) | 6.04 µM (inactive) | 4.66 µM (inactive) | 3.35 µM (inactive) | 0.621 µM (active) |
| COc1ccc2c(-c3ccc(O)cc3)c(Oc3ccccc3)c(=O)oc2c1 | 2.63 µM (inactive) | > 100 µM (inactive) | 18.8 µM (inactive) | 5.04 µM | 95.9 µM (inactive) | 8.17 µM (inactive) | 14.2 µM (inactive) | > 32.9 µM (inactive) | > 100 µM (inactive) | 3.74 µM (inactive) | > 23.2 µM (inactive) | 29.9 µM (inactive) | > 100 µM (inactive) | 2.72 µM (inactive) | > 100 µM (inactive) | 7.96 µM (inactive) | > 100 µM (inactive) | 8.2 µM (inactive) | 8.91 µM (inactive) | 4.61 µM (inactive) |
| COc1cc(CC(C)C(C)Cc2ccc(O)c(OC)c2)ccc1O (stereo not given) [DIHYDROGUAIARETIC ACID] | 16.9 µM (inactive) | > 50 µM (inactive) | 10.1 µM (inactive) | 20 µM | 15.1 µM (inactive) | 14.5 µM (inactive) | 16.2 µM (inactive) | 15.7 µM (inactive) | 15.8 µM (inactive) | 34 µM (inactive) | 17.4 µM (inactive) | 14.2 µM (inactive) | 9.68 µM (inactive) | 16.9 µM (inactive) | 17.3 µM (inactive) | 9.4 µM (inactive) | 13 µM (inactive) | 9.86 µM (inactive) | 15 µM (inactive) | 17.9 µM (inactive) |
| CC1=NN(c2nc(N)nc(/C(C#N)=C/c3ccc([N+](=O)[O-])o3)n2)C(C)(C)C1 | 3.45 µM (inactive) | 1.65 µM (inactive) | 1.81 µM (inactive) | 1.42 µM | 3.34 µM (inactive) | 13.1 µM (inactive) | 10.8 µM (inactive) | 3.85 µM (inactive) | 10 µM (inactive) | 2 µM (inactive) | 1.45 µM (inactive) | 2.24 µM (inactive) | 6.34 µM (inactive) | 1.85 µM (inactive) | 3.05 µM (inactive) | 2.35 µM (inactive) | 2.39 µM (inactive) | 1.66 µM (inactive) | 0.315 µM (active) | 1.69 µM (inactive) |
| O=C(NNC(=S)Nc1ccccc1)c1csc(NC(=S)NC2CCCCC2)n1 | > 100 µM (inactive) | 40.1 µM (inactive) | 46.3 µM (inactive) | 33.3 µM | 33 µM (inactive) | > 100 µM (inactive) | 85.7 µM (inactive) | 99.3 µM (inactive) | 29 µM (inactive) | > 100 µM (inactive) | 67.1 µM (inactive) | 9.59 µM (inactive) | > 100 µM (inactive) | > 100 µM (inactive) | 50.8 µM (inactive) | > 100 µM (inactive) | 35.5 µM (inactive) | 79.3 µM (inactive) | > 10 µM (inactive) | 64.9 µM (inactive) |
| O=C(O)c1cccc(CC(Br)C(=O)O)c1 (stereo not given) | > 100 µM (inactive) | > 100 µM (inactive) | > 100 µM (inactive) | > 100 µM | > 100 µM (inactive) | > 100 µM (inactive) | > 100 µM (inactive) | > 100 µM (inactive) | > 100 µM (inactive) | > 100 µM (inactive) | > 100 µM (inactive) | > 100 µM (inactive) | > 100 µM (inactive) | > 100 µM (inactive) | > 100 µM (inactive) | > 100 µM (inactive) | > 100 µM (inactive) | > 100 µM (inactive) | > 100 µM (inactive) | > 100 µM (inactive) |
